Read-outs that look alike come from different tables or passages of the source. Each block holds one compound with its values, some of them ahead of it.
Key:
[1] = Log P by HPLC on reversed phase columns (EEC directive 79/831 Annex V.A8); format: physicochemical; conditions: for chromatographic logP: reversed phase HPLC columns
Description: In the above table, measurement of Log P values was performed according to EEC directive 79/831 Annex V.A8 by HPLC (High Performance Liquid Chromatography) on reversed phase columns with the following methods: • [^a] Log P value is determined by measurement of LC-UV, in an acidic range, with 0.1% formic acid in water and acetonitrile as eluent (linear gradient from 10% acetonitrile to 95% acetonitrile). • [^b] Log P value is determined by measurement of LC-UV, in a neutral range, with 0.001 molar ammonium acetate solution in water and acetonitrile as eluent (linear gradient from 10% acetonitrile to 95% acetonitrile). • [^c] Log P value is determined by measurement of LC-UV, in an acidic range, with 0.1% phosphoric acid and acetonitrile as eluent (linear gradient from 10% acetonitrile to 95% acetonitrile).
If more than one Log P value is available within the same method, all the values are given and separated by “+”.
Calibration was done with straight-chain alkan2-ones (with 3 to 16 carbon atoms) with known Log P values (measurement of Log P values using retention times with linear interpolation between successive alkanones). Lambda-max-values were determined using UV-spectra from 200 nm to 400 nm and the peak values of the chromatographic signals.

[2] = test system: Xanthomonas campestris pv. campestris; test: In vivo preventive test on Xanthomonas campestris pv. campestris (black rot on cabbage); conditions: Xanthomonas campestris, cabbage, evaluated 8 or 10 days after inoculation, read-out: efficacy; for pest or weed control at 31 ppm: 31 ppm of active ingredient; for pest or weed control at 125 ppm: 125 ppm of active ingredient
Description: (§1) The tested active ingredients were prepared by homogenization in a mixture of acetone/Dimethyl sulfoxide/Tween®, and then diluted with water to obtain the desired active material concentration.
(§2) The young plants of cabbage were treated by spraying the active ingredient prepared as described above. Control plants were treated only with an aqueous solution of acetone/Dimethyl sulfoxide/Tween®.
After 72 hours, the plants were contaminated by spraying the leaves with an aqueous bacteria suspension of Xanthomonas campestris pv. campestris. The contaminated cabbage plants were incubated for 8 or 10 days at 27° C. at 95% relative humidity.
The test was evaluated 8 or 10 days after the inoculation. 0% means an efficacy which corresponds to that of the control plants while an efficacy of 100% means that no disease was observed.
Compound CMP1 was tested in an in vivo preventive test on Xanthomonas campestris pv. campestris (black rot on cabbage) in the same conditions as described in Example F.

Uromyces appendiculatus = test: In vivo preventive test on Uromyces appendiculatus (bean rust); conditions: Uromyces appendiculatus, 240 h, bean, evaluated 10 days after inoculation, read-out: efficacy; for pest or weed control at 500 ppm: 500 ppm of active ingredient; for pest or weed control at 31 ppm: 31 ppm of active ingredient; for pest or weed control at 125 ppm: 125 ppm of active ingredient
Description: as §1
The young plants of bean were treated by spraying the active ingredient prepared as described above.
Control plants were treated only with an aqueous solution of acetone/Dimethyl sulfoxide/Tween®.
After 72 hours, the plants were contaminated by spraying the leaves with an aqueous suspension of Uromyces appendiculatus spores. The contaminated bean plants were incubated for 24 hours at 20° C. and at 100% relative humidity and then for 9 days at 20° C. and at 70-80% relative humidity.
The test was evaluated 10 days after the inoculation. 0% means an efficacy which corresponds to that of the control plants while an efficacy of 100% means that no disease was observed.
Compound CMP1 was tested in an in vivo preventive test on Uromyces appendiculatus (bean rust) in the same conditions as described in Example G.

[3] = test system: Xanthomonas campestris pv. campestris; test: Xanthomonas campestris pv. campestris in vitro cell test; format: cell-based; conditions: 20 ppm of active ingredient, 24 h incubation, read-out: efficacy (direct activity, inhibition of bacteria growth)
Description: Solvent: DMSO Culture medium: LB broth medium (Luria Broth Miller) Sigma Inoculum: bacteria suspension Compounds were solubilized in DMSO and the solution used to prepare the required range of concentrations. The final concentration of DMSO used in the assay was ≤1%. Inoculum was prepared from a pre-culture of bacteria grown in liquid medium and diluted to the desired optical density (OD). Compounds were evaluated for their ability to inhibit bacteria growth in liquid culture assay. The compounds were added in the desired concentrations to culture medium containing the bacteria suspension. After 24 h of incubation, the efficacy of compounds was determined by spectrometric measurement of bacteria growth. Inhibition was determined by comparing the absorbance values in wells containing the compounds with the absorbance in control wells without active ingredients.

Peronospora parasitica = test: In vivo preventive test on Peronospora parasitica (crucifer downy mildew); conditions: Hyaloperonospora parasitica, 120 h; 125 ppm of active ingredient; cabbage; evaluated 5 days after inoculation; read-out: efficacy
Description: as §1, §2
After 72 hours, the plants were contaminated by spraying the leaves with an aqueous suspension of Peronospora parasitica spores. The contaminated cabbage plants were incubated for 5 days at 20° C. and at 100% relative humidity.
The test was evaluated 5 days after the inoculation. 0% means an efficacy which corresponds to that of the control plants while an efficacy of 100% means that no disease was observed.

[4] = test system: salicylate responsive promoter sequence of the PR1 (pathogenesis-related protein I) gene (AT2G14610); test: Induction of defense gene expression in Arabidopsis thaliana (PR1 promoter-GFP reporter plants); format: in vivo; conditions: 72 h, 3rd day after spraying, mock treated leaves set as 1.00, read-out: relative fluorescence value; for fold induction at 75 ppm: 75 ppm of compound
Description: Arabidopsis thaliana reporter plants containing the coding sequence of a green fluorescent protein (GFP) linked to the salicylate responsive promoter sequence of the PR1 (pathogenesis-related protein I) gene (AT2G14610) were grown for five days and then sprayed with compounds. On the 3rd day after spraying, plant fluorescence was assessed with a MacroFluo instrument from Leica Microsystems (Wetzlar, Germany). Fluorescences were quantified with the Meta-Morph Microscopy Automation & Image Analysis Software (Molecular Devices, Sunnyvale, Calif., United States).
Background fluorescence in mock treated leaves was set as 1.00.

[5] = test system: Colletotrichum lindemuthianum; test: Colletotrichum lindemuthianum in vitro cell test; format: cell-based; conditions: 144 h, 20 ppm of active ingredient, 6 days incubation, read-out: efficacy (direct activity, inhibition of fungal growth)
Description: Solvent: DMSO Culture medium: 14.6 g anhydrous D-glucose (VWR), 7.1 g Mycological Peptone (Oxoid), 1.4 g granulated Yeast Extract (Merck), QSP 1 liter Inoculum: spores suspension Fungicides were solubilized in DMSO and the solution used to prepare the required range of concentrations. The final concentration of DMSO used in the assay was ≤1%. A spore suspension of C. lindemuthianum was prepared and diluted to the desired spore density. Fungicides were evaluated for their ability to inhibit spores germination and mycelium growth in liquid culture assay. The compounds were added in the desired concentration to the culture medium with spores. After 6 days incubation, fungi-toxicity of compounds was determined by spectrometric measurement of mycelium growth. Inhibition of fungal growth was determined by comparing the absorbance values in wells containing the fungicides with the absorbance in control wells without fungicides.

[6] = given in preparation examples, method not marked
[7] = method [a]: LC-UV, acidic range, 0.1% formic acid in water and acetonitrile as eluent

chromatographic logP [1, 6]: 2.95
SMILES: O=C(O)C1(NC(=S)c2sc(Br)c(Br)c2F)CC1 [1-{[(4,5-dibromo-3-fluoro-2-thienyl)carbonothioyl]amino}cyclopropanecarboxylic acid]

Log P [1, 6]: 1.84
chromatographic logP [1, 6]: 1.88
SMILES: Cc1c(C(=O)NC2(C(=O)O)CC2)sc(C#N)c1Br [1-{[(4-bromo-5-cyano-3-methyl-2-thienyl)carbonyl]amino}cyclopropanecarboxylic acid]

chromatographic logP [1, 6]: 2.05
SMILES: Cc1c(C(=O)O)sc(C#N)c1Br [4-bromo-5-cyano-3-methylthiophene-2-carboxylic acid]

chromatographic logP [1, 7]: 5.61
SMILES: O=C1SC(c2sc(Cl)c(Cl)c2Cl)=NC12CC2 [I.01]
pest or weed control at 31 ppm [2]: 80 to 89%
pest or weed control at 500 ppm (Uromyces appendiculatus): 90 to 100%
inhibition at 20 ppm [3]: ≤ 30%
pest or weed control at 125 ppm (Peronospora parasitica): 80 to 89%
fold induction at 300 ppm [4]: > 2

chromatographic logP [1, 7]: 5.65
SMILES: Cc1c(C2=NC3(CC3)C(=O)S2)sc(Br)c1Br [I.02]
pest or weed control at 125 ppm [2]: 80 to 89%
inhibition at 20 ppm [5]: ≤ 30%
pest or weed control at 500 ppm (Uromyces appendiculatus): 70 to 79%
inhibition at 20 ppm [3]: ≤ 30%
fold induction at 75 ppm [4]: > 2
fold induction at 300 ppm [4]: > 2

chromatographic logP [1, 6]: 5.08
chromatographic logP [1, 7]: 5.08
SMILES: O=C1SC(c2sc(Br)c(Br)c2F)=NC12CC2 [I.03, 5-(4,5-dibromo-3-fluoro-2-thienyl)-6-thia-4-azaspiro[2.4]hept-4-en-7-one]
pest or weed control at 31 ppm [2]: 70 to 79%
pest or weed control at 125 ppm [2]: 70 to 79%
inhibition at 20 ppm [5]: ≤ 30%
inhibition at 20 ppm [3]: ≤ 30%
fold induction at 300 ppm [4]: > 2

LogP [1, 7]: 5.61^[a]
SMILES: O=C1SC(c2sc(Br)c(Br)c2Br)=NC12CC2 [I.04]

LogP [1, 7]: 2.83^[a]
SMILES: N#Cc1sc(C2=NC3(CC3)C(=O)O2)cc1Br [I.05]

LogP [1, 7]: 3.25^[a]
SMILES: Cc1c(C2=NC3(CC3)C(=O)O2)sc(C#N)c1Cl [I.07]

LogP [1, 7]: 5.31^[a]
SMILES: Cc1c(C2=NC(C(C)C)C(=O)O2)sc(Br)c1Br (stereo not shown) [I.10]

LogP [1, 7]: 5.61^[a]
SMILES: O=C1SC(c2sc(Br)c(Br)c2I)=NC12CC2 [I.14]

LogP [1]: 5.53^[a]
SMILES: Cc1c(C2=NC3(CC3)C(=O)S2)sc(Cl)c1Cl [I.15]

chromatographic logP [1, 7]: 3.77
SMILES: CC1(C)N=C(c2sc(Br)c(Br)c2F)OC1=O [I.16]
inhibition at 20 ppm [5]: ≤ 30%
pest or weed control at 31 ppm (Uromyces appendiculatus): 90 to 100%
pest or weed control at 125 ppm (Uromyces appendiculatus): 90 to 100%
inhibition at 20 ppm [3]: ≤ 30%
pest or weed control at 125 ppm (Peronospora parasitica): 90 to 100%
fold induction at 75 ppm [4]: > 2
fold induction at 300 ppm [4]: > 2

chromatographic logP [1, 7]: 4.51
SMILES: O=C1OC(c2sc(Br)c(Br)c2Cl)=NC12CCC2 [I.17]
inhibition at 20 ppm [5]: ≤ 30%
pest or weed control at 125 ppm (Uromyces appendiculatus): 90 to 100%
inhibition at 20 ppm [3]: ≤ 30%
pest or weed control at 125 ppm (Peronospora parasitica): 90 to 100%
fold induction at 75 ppm [4]: > 2
fold induction at 300 ppm [4]: > 2

LogP [1, 7]: 4.32^[a]
SMILES: CC1(C)N=C(c2sc(Cl)c(Br)c2Br)OC1=O [I.18]

chromatographic logP [1, 7]: 4.75
SMILES: Cc1c(C2=NC3(CCC3)C(=O)O2)sc(Cl)c1Cl [I.19]
inhibition at 20 ppm [5]: ≤ 30%
pest or weed control at 31 ppm (Uromyces appendiculatus): 90 to 100%
pest or weed control at 125 ppm (Uromyces appendiculatus): 90 to 100%
inhibition at 20 ppm [3]: ≤ 30%
pest or weed control at 125 ppm (Peronospora parasitica): 90 to 100%

chromatographic logP [1, 7]: 4.26
SMILES: CC1(C)N=C(c2sc(Cl)c(Br)c2Cl)OC1=O [I.21]
inhibition at 20 ppm [5]: ≤ 30%
pest or weed control at 31 ppm (Uromyces appendiculatus): 90 to 100%
pest or weed control at 125 ppm (Uromyces appendiculatus): 90 to 100%
inhibition at 20 ppm [3]: ≤ 30%
pest or weed control at 125 ppm (Peronospora parasitica): 90 to 100%

chromatographic logP [1, 7]: 4.33
SMILES: CC1(C)N=C(c2sc(Cl)c(Cl)c2Br)OC1=O [I.23]
inhibition at 20 ppm [5]: ≤ 30%
pest or weed control at 31 ppm (Uromyces appendiculatus): 70 to 79%
inhibition at 20 ppm [3]: ≤ 30%

chromatographic logP [1, 7]: 4.51
SMILES: Cc1c(C2=NC(C)(C)C(=O)O2)sc(Cl)c1Cl [I.24]
inhibition at 20 ppm [5]: ≤ 30%
pest or weed control at 125 ppm (Uromyces appendiculatus): 90 to 100%
inhibition at 20 ppm [3]: ≤ 30%
pest or weed control at 125 ppm (Peronospora parasitica): 80 to 89%

SMILES: O=C(O)c1ccccc1O [Salicylic acid, reference compound]
fold induction at 300 ppm [4]: 2.7

chromatographic logP [1, 6]: 3.91
SMILES: COC(=O)C1(NC(=S)c2sc(Br)c(Br)c2F)CC1 [methyl 1-{[(4,5-dibromo-3-fluoro-2-thienyl)carbonothioyl]amino}cyclopropanecarboxylate]

chromatographic logP [1, 6]: 2.31
SMILES: COC(=O)C1(NC(=O)c2sc(C#N)c(Br)c2C)CC1 [methyl 1-{[(4-bromo-5-cyano-3-methyl-2-thienyl)carbonyl]amino}cyclopropanecarboxylate]

Reference: patent US12492196B2, “Thienyloxazolones and analogues” (Bayer Aktiengesellschaft, priority 2019, dated 2025)
